Results: patent publication US12055536B2, “Device for detection of cellular stress” (Trustees of Boston University, priority 2021, dated 2024)

Experiments:
SKOV3 cells = assay: Cell viability assay (dose-response); assay type: cell-based, human; details: SKOV3 cells (sensitive)
Description: (§1) Cell viability was measured by MTS assay (Abcam, #ab197010) or by CellTiter-Glo™ assay (Promega, #G7570). Cells were seeded at 96-well plates at densities of 2000˜5000 cells per well overnight. Treatment was added to the cells at indicated concentrations for 72 h. Cell viability was measured by incubating with MTS reagent for 4 h and reading absorbance at 490 nm or incubating with CellTier-Glo™ reagent for 10 min and reading luminescence by a plate reader. Six replicates were used for each group.
(§2) In addition, isogenic PEO1/PEO4 cell lines derived from the same patient were studied, at the time of a platinum sensitive (PEO1) and platinum resistant-recurrence (PEO4).
(§3) Having shown decreased glucose-derived anabolism and increased fatty acid uptake in cisplatin-resistant ovarian cancer cells, whether this metabolic feature can be used for differentiation of cisplatin-resistant from cisplatin-sensitive cancer cells was explored. […] In Table 2 below, quantitation of glucose-d7 (G-d7), PA-d31, and OA-d34 are shown as area fraction of C-D signal out of total cellular area, in mean values.

PEO4 cells = assay: Cell viability assay (dose-response); assay type: cell-based, human
Description: as §1, §2, §3

OVCAR5 cells [1] = assay: Cell viability assay (dose-response); assay type: cell-based, human; details: OVCAR5 cells (sensitive)
Description: as §1, §2, §3

SKOV3-cisR cells [2] = assay: Cell viability assay (dose-response); assay type: cell-based, human; details: SKOV3-cisR cells
Description: as §1, §2, §3

PEO1 cells = assay: Cell viability assay (dose-response); assay type: cell-based, human; details: PEO1 cells (sensitive)
Description: as §1, §2, §3

OVCAR5-cisR cells [3] = assay: Cell viability assay (dose-response); assay type: cell-based, human
Description: as §1, §2, §3

SKOV3-cisR cells [4] = assay: Isotope labeling and SRS imaging; assay type: cell-based, human; details: BMS 5 μM, 10 μM or 20 μM for 24 hours, 100 μM PA-d31 for 6 hours
Description: (§4) For labeling with glucose-d7, media was replaced with glucose-free DMEM medium (Thermo Fisher Scientific, #11966025)+10% FBS+P/S supplemented with 25 mM glucose-d7 after seeding the cells in 35 mm glass-bottom dishes overnight. For labeling with FA or analogs, including PA-d31, OA-d34, and ODYA, FA or analogs were added to the culture media at final concentration of 100 μM and cells were treated for 6 h. For quantitative SRS imaging, cells on glass-bottom dishes were fixed with 10% neutral buffered formalin for 30 min and washed with PBS for 3 times. Hyperspectral SRS imaging was performed to the cells at Raman spectral region from 2100 to 2300 cm^−1.
(§5) To identify the source of increased lipid content in cisplatin-resistant ovarian cancer cells, the contribution of de novo lipogenesis and of fatty acid uptake were examined, respectively. Using a stable isotope probing method, the level of lipogenesis was examined by feeding the cells with deuterium labeled glucose-d7. […] Quantitative analysis confirmed significant reduction of both signal intensity and relative area fraction in PEO4 cells when compared to PEO1 cells (FIG. 2B), indicating a decrease in glucose derived anabolism and de novo lipogenesis in cisplatin-resistant cells. […]

OVCAR5-cisR cells [5] = assay: Isotope labeling and SRS imaging; assay type: cell-based, human; details: BMS 10 μM for 24 hours, 100 μM PA-d31 for 6 hours
Description: as §4, §5

SKOV3-cisR cells [6] = assay: Large-area hyperspectral SRS imaging of lipids, single cell analysis; assay type: cell-based, human; details: 10 μM C-75
Description: Hyperspectral SRS imaging was performed on a lab-built system following previously published method [8]. The laser source was a femtosecond laser (InSight™ DeepSee™, Spectra-Physics™, Santa Clara, CA, USA) operating at 80 MHz with two synchronized output beams, a tunable pump beam ranging from 680 nm to 1300 nm, and a Stokes beam fixed at 1040 nm. For imaging at the C-H vibration region (2800˜3050 cm^−1), pump beam was tuned to 798 nm. The Stokes beam was modulated at 2.3 MHz by an acousto-optic modulator (1205-C, Isomet®). After combination, both beams were chirped by two 12.7 cm long SF57 glass rods and then sent to a laser-scanning microscope. The power of pump and Stokes beam before microscope was controlled to be 20 mW and 200 mW, respectively. […]
Lipid analysis in single cells were performed through the software CellProfiler™ [68]. […] Morphological information of each cell and lipid analysis, including LD number and intensity in single cells were measured and reported in the output results. […] For each sample, a few hundreds to a thousand of cells were analyzed.
An SRS spectrum was extracted at each pixel from the image stack. […] Finally, quantitative characterization of lipids in terms of integrated intensity, mean intensity, area, and lipid droplet size in each individual cell was performed.

OVCAR5 xenografts = OVCAR5 xenografts in mice treated with carboplatin; assay type: in vivo; details: 25 mg/kg carboplatin weekly i.p. for three cycles versus saline
Description: Xenografts were obtained through intraperitoneally implantation of 2 million OVCAR5 cells in female (6-8 weeks old) athymic nude mice (Foxn1^nu, Envigo). Two weeks after inoculation, tumor harboring mice were treated with PBS (sensitive group, n=3) or 25 mg/kg carboplatin (resistant group, n=3) via weekly i.p. injection for three cycles. Tumors were collected and weighted one week after the last cycle and frozen. For SRS imaging, tumors were sectioned at […] thickness slices by cryostat. To isolate tumor cells from tissue, PBS and carboplatin treated xenografts were mechanically and enzymatically dissociated in Dulbecco's modified Eagle's medium/F12 (Thermo Fisher Scientific) containing collagenase (300 IU/ml, Sigma-Aldrich) and hyaluronidase (300 IU/ml, Sigma-Aldrich) for 2-4 hours at 37° C. […] To determine whether lipid accumulation also occurs in vivo in platinum-treated tumors, SRS imaging of lipids was performed in OVCAR5 xenografts collected from mice treated weekly with saline or carboplatin for three weeks. Tumor growth was suppressed by carboplatin treatment (FIG. 1N). […] (FIG. 1O). The results shown in FIGS. 1P-1Q indicate heterogenous lipid accumulation and higher lipid amount in the carboplatin-treated tumors compared with the platinum-sensitive tumors. Collectively, higher level of lipid content was a metabolic feature of cisplatin-resistant ovarian cancer cells.

[7] = test system: platinum resistant PDX model; assay: Platinum resistant patient-derived xenograft (PDX) model; assay type: in vivo; details: day 14 to 37
Description: The platinum resistant PDX model was developed as previously described. After passage through a donor animal, fresh tumor (equal size) was implanted subcutaneously (SC) in 20 female 7-8-week-old NSG mice (Jackson Labs, Cat #: JAX:00555). Tumor sizes were measured using calipers twice per week and tumor volumes were calculated according to the formula length×width^2/2. When the tumor volume reached 100 mm^3, the animals were randomized into four groups: vehicle, carboplatin alone (10 mg/kg weekly intraperitoneal (i.p.) injection), etomoxir alone (40 mg/kg daily i.p. injection), and combination of carboplatin (10 mg/kg weekly i.p. injection) and etomoxir (40 mg/kg daily i.p. injection). Body weights and habitus were monitored twice per week and mice were sacrificed when the largest tumor exceeded 1500 mm^3 or if human endpoints were reached earlier.
A patient-derived xenograft (PDX) model rendered platinum resistant through repeated exposure to carboplatin in vivo as described previously was used to test whether interruption of fatty acid oxidation could sensitize ovarian tumors to platinum in vivo.

OVCAR5 cells [8] = assay: Fatty acid oxidation assay (extracellular oxygen consumption kit); assay type: cell-based, human; details: 40 μM etomoxir over 3 hours
Description: (§6) Fatty acid oxidation (FAO) was measured using a commercial kit (Abcam, #ab217602) following the provided protocol. Briefly, cells were seeded in 96-well plate with 150 k cells/well. After incubation overnight, medium was replaced. 10 μL of Extracellular O2 consumption reagent, and 2 drops of high-sensitivity mineral oil (pre-heated at 37° C.) were added to each well. Fluorescence was measured in plate reader at 2 min intervals for 180 min at excitation/emission=380/650 nm. Etomoxir was added at final concentration of 40 μM to block FAO. Oxygen consumption rate (OCR) is presented as AFluorescence intensity/Min/cell and FAO rate is calculated as OCRFAO=OCRtotal−OCREtomoxir. At least three replicates were included for each measurement.

OVCAR5-cisR cells [9] = assay: as above; assay type: cell-based, human; details: 40 μM etomoxir over 3 hours
Description: as §6

COV362-cisR cells = assay: Cell viability assay (dose-response); assay type: cell-based, human
Description: as §1, §2, §3

OVCAR5 cells [10] = assay: OCR and ECAR by Seahorse analysis; assay type: cell-based, human; details: etomoxir treatment
Description: (§7) Cell lines were seeded in a Seahorse® XF96 Cell Culture Microplate (Agilent) at density of 6×10^4 (OVCAR5 pair) or 4×10^4 (PEO pair) per well. After incubation at 37° C. overnight for cell attachment, OCR, and extracellular acidification rate (ECAR) were measured through Seahorse® XFe96 Analyzer (Agilent). Measurement time was 30 seconds following 3 minutes mixture and 30 seconds waiting time. First three cycles were used for basal respiration measurement. […] Basal respiration, ATP production and maximal respiration reduction were calculated following the manufacturer's instructions.

OVCAR5-cisR cells [11] = assay: OCR and ECAR by Seahorse analysis; assay type: cell-based, human; details: etomoxir treatment
Description: as §7

OVCAR5-cisR cells [12] = assay: ATP/ADP assay; assay type: cell-based, human; details: 3.3 μM cisplatin with 100 μM palmitic acid for 6 hours
Description: NADP/NADPH and ADP/ATP were measured by using commercial kits (Abcam, #ab65349 and #ab65313). For NADPH measurement, cells (˜1×10^6 cells) were pelleted and extracted using NADPH/NADP extraction buffer. Total NADP/NADPH was directly measured using the assay kit and NADPH alone was measured after decomposing NADP by heating at 60° C. for 30 min. Absorption at 450 nm was measured by plate reader (Molecular Devices, SpectraMax i3x). For ATP measurement, cells were seeded in 96-well plates. ATP was measured directly and total ATP+ADP was measured by converting ADP to ATP. The luminescent signal was measured by plate reader. At least three replicates were included for each measurement.

## CCc1c(-c2ccccc2)c(-c2ccccc2)nn1-c1ccccc1-c1cccc(OCC(=O)O)c1 [BMS309403]
SKOV3 cells
  dose-response to cisplatin with supplemental BMS treatment: less obvious
PEO4 cells; PEO4 cells
  dose-response to cisplatin with supplemental BMS treatment: reduced resistance to cisplatin
OVCAR5 cells [1]
  dose-response to cisplatin with supplemental BMS treatment: less obvious
SKOV3-cisR cells [2]
  dose-response to cisplatin with supplemental BMS treatment: reduced resistance to cisplatin
PEO1 cells
  dose-response to cisplatin with supplemental BMS treatment: less obvious
OVCAR5-cisR cells [3]; OVCAR5-cisR cells
  dose-response to cisplatin with supplemental BMS treatment: reduced resistance to cisplatin
SKOV3-cisR cells [4]
  fatty acid uptake (C-D SRS signal intensity): Suppression of fatty acid uptake
OVCAR5-cisR cells [5]
  PA-d31 uptake (C-D SRS signal intensity): significantly reduced

## C=C1C(=O)OC(CCCCCCCC)C1C(=O)O (centres unmarked) [C-75]
SKOV3-cisR cells [6]
  increased lipid content in SKOV3-cisR compared with SKOV3: did not affect the increased lipid content

## N.N.O=C([O-])C1(C(=O)[O-])CCC1.[Pt+2] [carboplatin]
OVCAR5 xenografts
  Tumor growth (weights of xenografts): suppressed
[7]; carboplatin alone, 10 mg/kg weekly i.p.
  tumor growth (total tumor volume): slight reduction of tumor growth

## CCOC(=O)[C@@]1(CCCCCCOc2ccc(Cl)cc2)CO1 [etomoxir]
OVCAR5 cells [8]
  oxygen consumption: did not induce an obvious change
OVCAR5-cisR cells [9]
  oxygen consumption: significantly reduced
COV362-cisR cells; COV362-cisR cells, etomoxir 40 μM
  dose-response to cisplatin curves with etomoxir treatment: significantly left shifted
COV362-cisR cells; COV362-cisR versus COV362
  dose-response to etomoxir, compared to parental cell line: Higher sensitivity
PEO4 cells; PEO4 cells, etomoxir 40 μM
  dose-response to cisplatin curves with etomoxir treatment: significantly left shifted
PEO4 cells; PEO4 versus PEO1
  dose-response to etomoxir, compared to parental cell line: Higher sensitivity
OVCAR5-cisR cells [3]; OVCAR5-cisR cells, etomoxir 40 μM
  dose-response to cisplatin curves with etomoxir treatment: significantly left shifted
OVCAR5-cisR cells [3]; OVCAR5-cisR versus OVCAR5
  dose-response to etomoxir, compared to parental cell line: Higher sensitivity
[7]; etomoxir alone, 40 mg/kg daily i.p.
  tumor growth (total tumor volume): slight reduction of tumor growth
OVCAR5 cells [10]
  OCR (Seahorse FAO assay): less sensitive
OVCAR5-cisR cells [11]
  OCR (Seahorse FAO assay): obvious reduction of OCR

## CCCCCCCCCCCCCCCC(=O)O [palmitic acid]
OVCAR5-cisR cells [12]
  ATP level (ATP/ADP ratio) on supplementation: significantly increased
